Results as given in the supplement of paper PMC10307832.

How the values were obtained:
Assay in all cases: relative viability (nuclei count vs DMSO), 5 days (fraction); higher = more cells survive
AZD5582 + Foretinib = compound: C[C@@H](C(=O)N[C@@H](C1CCCCC1)C(=O)N2CCC[C@H]2C(=O)N[C@@H]3[C@@H](CC4=CC=CC=C34)OCC#CC#CCO[C@@H]5CC6=CC=CC=C6[C@@H]5NC(=O)[C@@H]7CCCN7C(=O)[C@H](C8CCCCC8)NC(=O)[C@H](C)NC)NC [AZD5582] + COc1cc2c(Oc3ccc(NC(=O)C4(C(=O)Nc5ccc(F)cc5)CC4)cc3F)ccnc2cc1OCCCN1CCOCC1 [Foretinib] (partner 0.25 µM)
Procedure, shortened: (§1)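 After 5 days of treatment, lung cancer cells in 1536-well plates were fixed and stained in a single step (final 0.05% Triton X-100, 1% formaldehyde, 1 ug/ml Hoechst) and their nuclei counted on 4× images. Treatment had been applied by pin tool the day after seeding as one drug alone or as a fixed anchor-drug dose with five library-drug doses (not always all listed) in √10 steps. Relative viability is the nuclei count of treated wells divided by that of vehicle wells, and values are medians of duplicate plates.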

AZD5582 + Vorinostat = compound: C[C@@H](C(=O)N[C@@H](C1CCCCC1)C(=O)N2CCC[C@H]2C(=O)N[C@@H]3[C@@H](CC4=CC=CC=C34)OCC#CC#CCO[C@@H]5CC6=CC=CC=C6[C@@H]5NC(=O)[C@@H]7CCCN7C(=O)[C@H](C8CCCCC8)NC(=O)[C@H](C)NC)NC [AZD5582] + O=C(CCCCCCC(=O)Nc1ccccc1)NO [Vorinostat] (partner 1 µM)
Procedure, shortened: as §1

[1] = compound: Cn1nnc2c(C(N)=O)ncn2c1=O [Temozolomide] + CC(=O)Nc1cccc(-n2c(=O)n(C3CC3)c(=O)c3c(Nc4ccc(I)cc4F)n(C)c(=O)c(C)c32)c1 [Trametinib] (partner 0.02 µM)
Procedure, shortened: as §1

[2] = compound: Cn1nnc2c(C(N)=O)ncn2c1=O [Temozolomide] + CC1(C)CCC(c2ccc(Cl)cc2)=C(CN2CCN(c3ccc(C(=O)NS(=O)(=O)c4ccc(N[C@H](CCN5CCOCC5)CSc5ccccc5)c(S(=O)(=O)C(F)(F)F)c4)cc3)CC2)C1 [Navitoclax] (partner 0.5 µM)
Procedure, shortened: as §1

Row | Cell Line | relative viability (AZD5582 + Foretinib; first compound 0.001581 µM) | relative viability (AZD5582 + Foretinib; first compound 0.005 µM) | relative viability (AZD5582 + Foretinib; first compound 0.01581 µM) | relative viability (AZD5582 + Foretinib; first compound 0.05 µM) | relative viability (AZD5582 + Vorinostat; first compound 0.001581 µM) | relative viability (AZD5582 + Vorinostat; first compound 0.005 µM) | relative viability (AZD5582 + Vorinostat; first compound 0.05 µM) | relative viability ([1]; first compound 0.2 µM) | relative viability ([1]; first compound 0.6325 µM) | relative viability ([1]; first compound 2 µM) | relative viability ([1]; first compound 6.325 µM) | relative viability ([1]; first compound 20 µM) | relative viability ([2]; first compound 0.2 µM) | relative viability ([2]; first compound 0.6325 µM) | relative viability ([2]; first compound 2 µM) | relative viability ([2]; first compound 6.325 µM) | relative viability ([2]; first compound 20 µM) | relative viability (AZD5582 + Vorinostat; first compound 0.01581 µM)
1 | NCI-H1395 | 0.979 | 1.14 | 1.04 | 1.14 | 0.721 | 0.789 | 0.768 | 0.815 | 1.06 | 1.17 | 0.986 | 1.02 | 1.26 | 1.14 | 1.14 | 1.1 | 1.05 | –
2 | NCI-H1437 | 1.17 | 1.22 | 1.24 | 1.16 | 0.711 | 0.751 | 0.743 | 0.539 | 0.544 | 0.561 | 0.594 | 0.565 | 1.15 | 1.12 | 1.13 | 1.13 | 1.17 | 0.838
3 | NCI-H1650 | 0.971 | 1.33 | 1.27 | 0.889 | 0.528 | 0.534 | 0.572 | 0.618 | 0.654 | 0.611 | 0.642 | 0.39 | 1.39 | 1.33 | 1.08 | 1.28 | 0.974 | 0.576
4 | NCI-H1651 | 0.714 | 0.883 | – | 1.16 | 0.525 | 0.557 | 0.584 | 0.677 | 0.834 | 0.818 | 0.77 | 0.84 | 1.15 | 1.01 | 1.07 | 0.958 | 1 | 0.56
5 | NCI-H1666 | 0.786 | 1.02 | 0.953 | 0.907 | 0.848 | 0.891 | 0.958 | 0.828 | 0.871 | 0.739 | 0.809 | 0.732 | 0.831 | 0.933 | 0.764 | 0.768 | 0.454 | 1.05
6 | NCI-H1734 | 0.814 | 0.892 | 0.968 | 1.11 | 0.754 | 0.85 | 0.877 | 0.722 | 0.694 | 0.661 | 0.678 | 0.692 | 0.803 | 0.854 | 0.886 | 0.811 | 0.835 | 0.889
7 | NCI-H1755 | 0.939 | 0.98 | 0.846 | 1 | 0.775 | 0.863 | 0.88 | 0.81 | 0.761 | 0.718 | 0.664 | 0.549 | 1.07 | 0.982 | 1.01 | 0.971 | 0.727 | 0.688
8 | NCI-H1793 | 0.737 | 0.827 | 0.572 | 0.908 | 0.767 | 0.927 | 0.587 | – | 0.463 | 0.465 | 0.335 | 0.414 | – | 0.358 | 0.415 | 0.506 | 0.3 | 0.565
